Measured values from patent publication US8247610B2, “Amine linked modulators of γ-secretase” (Janssen Pharmaceutica N.V., priority 2007, dated 2012).

What follows are molecules tested against T1, γ-secretase (Homo sapiens, UniProt P49768) (assay: Screening for γ-secretase-modulating activity in SKNBE2 cells carrying the APP 695 wild type). Conditions: 0.3 μM; SKNBE2 cells carrying APP 695 wild type.
T1 construct: endogenous in cells; host or cells: SKNBE2 cells carrying APP 695 wild type
Assay type: cell-based
Experimental: Screening of the Compounds of the Invention for γ-Secretase-Modulating Activity
Screening was carried out using SKNBE2 cells carrying the APP 695—wild type, grown in DMEM/NUT-mix F12 (HAM) provided by Gibco (cat no. 31330-38) containing 5% Serum/Fe supplemented with 1% non-essential amino acids.
Cells were grown to near confluency.
The screening was performed using the assay as described in Citron et al (1997) Nature Medicine 3: 67.

Row | Molecule | inhibition at 0.3 µM [%] | inhibition @ 0.3 μM [% inhi- bition @ 0.3 μM]
1 | CC(C)CC(C(=O)O)c1cc(NCc2ccc(C(C)(C)C)cc2)cc(-c2ccc(C(F)(F)F)cc2)c1 (stereo not shown) [Compound 37, 2-[5-(4-tert-Butyl-benzylamino)-4′-trifluoromethyl-biphenyl-3-yl]-4-methyl-pentanoic acid] | 18 | –
2 | CC(C)CC(C(=O)O)c1cc(-c2ccc(C(F)(F)F)cc2)cc(N2CCc3ccccc3C2)c1 (stereo not shown) [Compound 53, 4-Methyl-2-[-5-(3,4-dihydroisoquinolin-2(1H)-yl)-4′-(trifluoromethyl)biphenyl-3-yl]-pentanoic acid] | 0 | –
3 | CC(C)C[C@@H](C(=O)O)c1cc(NCc2ccc(OC(F)(F)F)cc2)cc(-c2ccc(C(F)(F)F)cc2)c1 [Compound 41, 4-Methyl-2-[5-(4-trifluoromethoxy-benzylamino)-4′-trifluoromethyl-biphenyl-3-yl]-pentanoic acid] | 0 | –
4 | CCN(c1cc(-c2ccc(C(F)(F)F)cc2)cc(C(CC(C)C)C(=O)O)c1)c1cccc(C(F)(F)F)c1 (stereo not shown) [Example 13, 2-{5-[Ethyl-(3-trifluoromethyl-phenyl)-amino]-4′-trifluoromethyl-biphenyl-3-yl}-4-methyl-pentanoic acid] | 16 | –
5 | 2-(5-(2,4-difluorobenzylamino)-4′-(trifluoromethyl)biphenyl-3-yl)-4-methyl pentanoic acid [Compound 52] | – | 0
6 | CC(C)CC(=O)N(c1ccc(Cl)cc1)c1cc(-c2ccc(C(F)(F)F)cc2)cc(C(CC(C)C)C(=O)O)c1 (stereo not shown) [Example 23, 2-{5-[(4-Chloro-phenyl)-(3-methyl-butyryl)-amino]-4′-trifluoromethyl-biphenyl-3-yl}-4-methyl-pentanoic acid] | 21 | –
7 | CC(C)CCC(c1cc(F)cc(F)c1)N(C)c1cc(-c2ccc(C(F)(F)F)cc2)cc(C(CC(C)C)C(=O)O)c1 (stereo not shown) [Compound 50, 2-(5-{[1-(3,5-Difluoro-phenyl)-4-methyl-pentyl]-methyl-amino}-4′-trifluoromethyl-biphenyl-3-yl)-4-methyl-pentanoic acid] | 65 | –

Continued, in another order:

Row | inhibition at 0.3 µM [%] | Molecule | inhibition @ 0.3 μM [% inhi- bition @ 0.3 μM]
8 | 11 | CC(C)CCN(Cc1cc(CC(=O)O)cc(-c2ccc(C(F)(F)F)cc2)c1)Cc1ccc(Cl)c(F)c1 [Compound 57, (5-{[(4-Chloro-3-fluoro-benzyl)-(3-methyl-butyl)-amino]-methyl}-4′-trifluoromethyl-biphenyl-3-yl)-acetic acid] | –
9 | 11 | CC(C)CCC(Nc1cc(CC(=O)O)cc(-c2ccc(C(F)(F)F)cc2)c1)c1cc(F)cc(F)c1 (stereo not shown) [Compound 33] | –
10 | 22 | CC(C)CC(C(=O)O)c1cc(NC2CCCc3ccccc32)cc(-c2ccc(C(F)(F)F)cc2)c1 (stereo not shown) [Compound 34, 4-Methyl-2-[5-(1,2,3,4-tetrahydro-naphthalen-1-ylamino)-4′-trifluoromethyl-biphenyl-3-yl]-pentanoic acid] | –
11 | 14 | CCN(c1ccc(Cl)cc1)c1cc(-c2ccc(C(F)(F)F)cc2)cc(C(CC(C)C)C(=O)O)c1 (stereo not shown) [Example 14, 2-{5-[(4-Chloro-phenyl)-ethyl-amino]-4′-trifluoromethyl-biphenyl-3-yl}-4-methyl-pentanoic acid] | –
12 | 31 | CC(C)CCN(Cc1ccc(C#N)cc1)c1cc(-c2ccc(C(F)(F)F)cc2)cc([C@@H](CC(C)C)C(=O)O)c1 [Compound 48, (R) 2-{5-[(4-Cyano-benzyl)-(3-methyl-butyl)-amino]-4′-trifluoromethyl-biphenyl-3-yl}-4-methyl-pentanoic acid] | –
13 | 13 | CC(C)CC(C(=O)O)c1cc(-c2ccc(C(F)(F)F)cc2)cc(N(C)c2cc[n+](C)cc2)c1 (stereo not shown) [Example 16, 4-{[5-(1-Carboxy-3-methyl-butyl)-4′-trifluoromethyl-biphenyl-3-yl]-methyl-amino}-1-methyl-pyridinium] | –

Same assay, conditions: SKNBE2 cells carrying APP 695 wild type

Row | Molecule | EC50 [µM]
14 | CC(C)CC(C(=O)O)c1cc(-c2ccc(C(F)(F)F)cc2)cc(N(C)c2ccc(Cl)cc2)c1 (stereo not shown) [Example 1, 2-{5-[(4-Chloro-phenyl)-methyl-amino]-4′-trifluoromethyl-biphenyl-3-yl}-4-methyl-pentanoic acid] | 0.62
15 | CC(C)CC(C(=O)O)c1cc(-c2cc(F)cc(C(F)(F)F)c2)cc(N(C)c2cc(C(F)(F)F)cc(C(F)(F)F)c2)c1 (stereo not shown) [Example 25, 2-[5′-Fluoro-5-(N-[3,5-bis-(trifluoromethyl)phenyl]-N-methylamino)-3′-trifluoromethyl-biphenyl-3-yl]-4-methyl-pentanoic acid] | 0.6
16 | CC(C)CCN(Cc1cc(-c2ccc(C(F)(F)F)cc2)cc([C@@H](CC(C)C)C(=O)O)c1)c1ccc(C(F)(F)F)cc1 [Compound 63, 4-Methyl-2-(5-{[(3-methyl-butyl)-(4-trifluoromethyl-phenyl)-amino]-methyl}-4′-trifluoromethyl-biphenyl-3-yl)-pentanoic acid] | 0.25
17 | CC(C)CCN(c1ccc(Cl)cc1)c1cc(-c2ccc(C(F)(F)F)cc2)cc(C(CC(C)C)C(=O)O)c1 (stereo not shown) [Example 18, 2-{5-[(4-Chloro-phenyl)-(3-methyl-butyl)-amino]-4′-trifluoromethyl-biphenyl-3-yl}-4-methyl-pentanoic acid] | 0.15
18 | CC(C)CC(C(=O)O)c1cc(-c2ccc(C(F)(F)F)cc2)cc(N(C)c2ccc(C(F)(F)F)nc2)c1 (stereo not shown) [Example 15, 4-Methyl-2-{5-[methyl-(6-trifluoromethyl-pyridin-3-yl)-amino]-4′-trifluoromethyl-biphenyl-3-yl}-pentanoic acid] | 0.85
19 | CC(C)CC(C(=O)O)c1cc(-c2ccc(C(F)(F)F)cc2)cc(N(C)c2cc(C(F)(F)F)ccc2C(F)(F)F)c1 (stereo not shown) [Example 12, 2-{5-[(2,5-Bis-trifluoromethyl-phenyl)-methyl-amino]-4′-trifluoromethyl-biphenyl-3-yl}-4-methyl-pentanoic acid] | 0.16
20 | CC(C)CCN(Cc1cc(F)cc(F)c1)c1cc(-c2ccc(C(F)(F)F)cc2)cc([C@@H](CC(C)C)C(=O)O)c1 [Compound 40, 2-{5-[(3,5-Difluoro-benzyl)-(3-methyl-butyl)-amino]-4′-trifluoromethyl-biphenyl-3-yl}-4-methyl-pentanoic acid] | 0.19
21 | CC(C)CCN(Cc1ccc(OC(F)(F)F)cc1)c1cc(-c2ccc(C(F)(F)F)cc2)cc([C@@H](CC(C)C)C(=O)O)c1 [Compound 42, (R) 4-Methyl-2-{5-[(3-methyl-butyl)-(4-trifluoromethoxy-benzyl)-amino]-4′-trifluoromethyl-biphenyl-3-yl}-pentanoic acid] | 0.64
22 | CC(C)CC(C(=O)O)c1cc(-c2ccc(C(F)(F)F)cc2)cc(N(C)c2cc(F)cc(F)c2)c1 (stereo not shown) [Example 3, 2-{5-[(3,5-Difluoro-phenyl)-methyl-amino]-4′-trifluoromethyl-biphenyl-3-yl}-4-methyl-pentanoic acid] | 0.45
23 | CC(C)CCN(Cc1ccc(C(F)(F)F)cc1)c1cc(-c2ccc(C(F)(F)F)cc2)cc(C(CC(C)C)C(=O)O)c1 (stereo not shown) [Compound 45, 4-Methyl-2-{5-[(3-methyl-butyl)-(4-trifluoromethyl-benzyl)-amino]-4′-trifluoromethyl-biphenyl-3-yl}-pentanoic acid] | 0.58

Other lines, results leading:

Row | EC50 [µM] | Molecule
24 | 0.59 | CC(C)CCN(Cc1ccc(C(F)(F)F)cc1)Cc1cc(CC(=O)O)cc(-c2ccc(C(F)(F)F)cc2)c1 [Compound 58, (5-{[(3-Methyl-butyl)-(4-trifluoromethyl-benzyl)-amino]-methyl}-4′-trifluoromethyl-biphenyl-3-yl)-acetic acid]
25 | 1.13 | CC(C)CC(C(=O)O)c1cc(-c2ccc(C(F)(F)F)cc2)cc(N(C)c2ccc(Cl)cc2)c1 (single isomer, unassigned) [Example 21, (R*)2-{5-[(4-Chloro-phenyl)-methyl-amino]-4′-trifluoromethyl-biphenyl-3-yl}-4-methyl-pentanoic acid]
26 | 0.17 | CC(C)CCN(c1ccc(C(F)(F)F)cc1)c1cc(-c2ccc(C(F)(F)F)cc2)cc(C(CC(C)C)C(=O)O)c1 (stereo not shown) [Example 20, 4-Methyl-2-{5-[(3-methyl-butyl)-(4-trifluoromethyl-phenyl)-amino]-4′-trifluoromethyl-biphenyl-3-yl}-pentanoic acid]
27 | 2.15 | CC(C)CC(C(=O)O)c1cc(-c2ccc(C(F)(F)F)cc2)cc(N(C)c2ccc(Cl)cc2)c1 (single isomer, unassigned) [Example 22, (S*)2-{5-[(4-Chloro-phenyl)-methyl-amino]-4′-trifluoromethyl-biphenyl-3-yl}-4-methyl-pentanoic acid]
28 | 0.26 | CC(C)CCN(c1cc(-c2ccc(C(F)(F)F)cc2)cc(C(CC(C)C)C(=O)O)c1)c1cccc(C(F)(F)F)c1 (stereo not shown) [Example 17, 4-Methyl-2-{5-[(3-methyl-butyl)-(3-trifluoromethyl-phenyl)-amino]-4′-trifluoromethyl-biphenyl-3-yl}-pentanoic acid]
